Data: ChEMBL document CHEMBL1201862, “PubChem BioAssay data set” (2004)
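How tested: cells in 96-well plates exposed to compound for 48 hours at five concentrations. The concentration for 50% growth inhibition is given as GI50.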 Activity calls are given as the source filed them. Cut-off read from the data, not from the text of the source: active = GI50 up to about 1.1 µM and inactive = higher.

Tests used:
Assay in all cases: NCI tumour cell line growth inhibition, 48 h
[1] = system: A498
[2] = system: A549
[3] = system: ACHN
[4] = system: CAKI-1
[5] = system: CCRF-CEM
[6] = system: COLO 205
[7] = system: DLD-1
[8] = system: DMS-273
[9] = system: EKVX
[10] = system: HCC 2998
[11] = system: HCT-116
[12] = system: HCT-15
[13] = system: HL-60
[14] = system: HOP-62
[15] = system: HOP-92
[16] = system: HT-29
[17] = system: IGROV-1
[18] = system: K562
[19] = system: KM-20L2
[20] = system: KM12
[21] = system: LOX IMVI
[22] = system: LXFL 529
[23] = system: M14
[24] = system: M19-MEL
[25] = system: MOLT-4
[26] = system: NCI-H226
[27] = system: NCI-H23
[28] = system: NCI-H460
[29] = system: NCI-H522
[30] = system: OVCAR-4
[31] = system: OVCAR-5
[32] = system: OVCAR-8
[33] = system: RPMI-8226
[34] = system: SF-268
[35] = system: SF-295
[36] = system: SF-539
[37] = system: SK-MEL-28
[38] = system: SK-MEL-2
[39] = system: SK-MEL-5
[40] = system: SK-OV-3
[41] = system: SN12C
[42] = system: SNB-19
[43] = system: SNB-75
[44] = system: SNB-78
[45] = system: SR
[46] = system: SW-620
[47] = system: TK-10
[48] = system: U-251
[49] = system: UACC-257
[50] = system: UACC-62
[51] = system: UO-31
[52] = system: XF498
[53] = system: 786-0
[54] = system: DMS-114
[55] = system: HOP-18
[56] = system: OVCAR-3
[57] = system: RXF 393

## [O-][S+]1c2ccccc2N=C(c2ccc3ccccc3c2)CC1c1ccccc1 (centres undefined)
[1]
  GI50: 17.4 µM (inactive)
[2]
  GI50: 21.3 µM (inactive)
[3]
  GI50: 16.4 µM (inactive)
[4]
  GI50: 25.1 µM (inactive)
[5]
  GI50: 31.8 µM (inactive)
[6]
  GI50: 19.1 µM (inactive)
[7]
  GI50: 19 µM (inactive)
[8]
  GI50: 38.6 µM (inactive)
[9]
  GI50: 25.1 µM (inactive)
[10]
  GI50: 21.9 µM (inactive)
[11]
  GI50: 19.1 µM (inactive)
[12]
  GI50: 16.4 µM
[13]
  GI50: 25.9 µM (inactive)
[14]
  GI50: 29.3 µM (inactive)
[15]
  GI50: 35.6 µM (inactive)
[16]
  GI50: 17.4 µM (inactive)
[17]
  GI50: 16.9 µM (inactive)
[18]
  GI50: 23.7 µM (inactive)
[19]
  GI50: 18.7 µM (inactive)
[20]
  GI50: 13.9 µM (inactive)
[21]
  GI50: 21.1 µM (inactive)
[22]
  GI50: 16.1 µM (inactive)
[23]
  GI50: 47.2 µM (inactive)
[24]
  GI50: 17.9 µM (inactive)
[25]
  GI50: 31 µM (inactive)
[26]
  GI50: 23.3 µM (inactive)
[27]
  GI50: 17.9 µM (inactive)
[28]
  GI50: 19.7 µM (inactive)
[29]
  GI50: 18.2 µM (inactive)
[30]
  GI50: 20.2 µM (inactive)
[31]
  GI50: 21.5 µM (inactive)
[32]
  GI50: 16.4 µM (inactive)
[33]
  GI50: 29.6 µM (inactive)
[34]
  GI50: 18.2 µM (inactive)
[35]
  GI50: 19.9 µM (inactive)
[36]
  GI50: 18.4 µM (inactive)
[37]
  GI50: 43 µM (inactive)
[38]
  GI50: 30.8 µM (inactive)
[39]
  GI50: 27.7 µM (inactive)
[40]
  GI50: 36.2 µM (inactive)
[41]
  GI50: 34.4 µM (inactive)
[42]
  GI50: 17.9 µM (inactive)
[43]
  GI50: 17.1 µM (inactive)
[44]
  GI50: 47.3 µM (inactive)
[45]
  GI50: 17.9 µM (inactive)
[46]
  GI50: 15.3 µM (inactive)
[47]
  GI50: 22.8 µM (inactive)
[48]
  GI50: 18.6 µM (inactive)
[49]
  GI50: 28.1 µM (inactive)
[50]
  GI50: 36.6 µM (inactive)
[51]
  GI50: 18.4 µM (inactive)
[52]
  GI50: 23.9 µM (inactive)

## Cc1ccc(/C=C(\C#N)c2ccccc2)cc1
[53]
  GI50: > 100 µM (inactive)
[1]
  GI50: > 100 µM (inactive)
[3]
  GI50: > 100 µM (inactive)
[4]
  GI50: > 100 µM (inactive)
[5]
  GI50: > 100 µM (inactive)
[6]
  GI50: > 100 µM (inactive)
[7]
  GI50: > 100 µM (inactive)
[54]
  GI50: > 100 µM (inactive)
[8]
  GI50: > 100 µM (inactive)
[10]
  GI50: > 100 µM (inactive)
[11]
  GI50: > 100 µM (inactive)
[12]
  GI50: > 100 µM
[55]
  GI50: > 100 µM (inactive)
[14]
  GI50: > 100 µM (inactive)
[15]
  GI50: > 100 µM (inactive)
[16]
  GI50: > 100 µM (inactive)
[17]
  GI50: > 100 µM (inactive)
[18]
  GI50: > 100 µM (inactive)
[19]
  GI50: > 100 µM (inactive)
[20]
  GI50: > 100 µM (inactive)
[21]
  GI50: > 100 µM (inactive)
[22]
  GI50: > 100 µM (inactive)
[23]
  GI50: > 100 µM (inactive)
[24]
  GI50: > 100 µM (inactive)
[25]
  GI50: > 100 µM (inactive)
[26]
  GI50: > 100 µM (inactive)
[27]
  GI50: > 100 µM (inactive)
[28]
  GI50: > 100 µM (inactive)
[29]
  GI50: > 100 µM (inactive)
[56]
  GI50: > 100 µM (inactive)
[30]
  GI50: > 100 µM (inactive)
[31]
  GI50: > 100 µM (inactive)
[32]
  GI50: > 100 µM (inactive)
[33]
  GI50: > 100 µM (inactive)
[57]
  GI50: > 100 µM (inactive)
[34]
  GI50: > 100 µM (inactive)
[35]
  GI50: > 100 µM (inactive)
[36]
  GI50: > 100 µM (inactive)
[37]
  GI50: > 100 µM (inactive)
[38]
  GI50: > 100 µM (inactive)
[39]
  GI50: > 100 µM (inactive)
[40]
  GI50: > 100 µM (inactive)
[41]
  GI50: > 100 µM (inactive)
[43]
  GI50: > 100 µM (inactive)
[44]
  GI50: > 100 µM (inactive)
[45]
  GI50: > 100 µM (inactive)
[46]
  GI50: > 100 µM (inactive)
[47]
  GI50: > 100 µM (inactive)
[48]
  GI50: > 100 µM (inactive)
[49]
  GI50: > 100 µM (inactive)
[50]
  GI50: > 100 µM (inactive)
[51]
  GI50: > 100 µM (inactive)
